# Measurements from ChEMBL document CHEMBL1132043, “4-N-linked-heterocyclic piperidine derivatives with high affinity and selectivity for human dopamine D4 receptors” (Bioorg Med Chem Lett, 1999).
# How the values were obtained:
# Assay in all cases: biochemical
# D(4) dopamine receptor = target: T1, D(4) dopamine receptor (Homo sapiens, UniProt P21917)
# T1 sequence (P21917 whole entry): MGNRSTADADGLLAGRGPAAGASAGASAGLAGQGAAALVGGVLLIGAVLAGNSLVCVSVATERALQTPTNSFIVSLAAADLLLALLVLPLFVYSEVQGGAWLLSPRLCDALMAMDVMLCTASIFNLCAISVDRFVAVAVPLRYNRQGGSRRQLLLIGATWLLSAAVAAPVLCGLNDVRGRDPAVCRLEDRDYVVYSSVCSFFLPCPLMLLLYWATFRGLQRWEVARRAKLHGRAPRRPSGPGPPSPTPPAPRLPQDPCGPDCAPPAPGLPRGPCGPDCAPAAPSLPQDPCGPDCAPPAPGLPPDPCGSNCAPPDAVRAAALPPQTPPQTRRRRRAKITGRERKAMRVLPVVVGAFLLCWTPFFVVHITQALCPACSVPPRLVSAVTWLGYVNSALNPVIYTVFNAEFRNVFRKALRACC
# Description: Displacement of [3H]spiperone from human Dopamine receptor D4 expressed in HEK293 cells
# D(3) dopamine receptor = D(3) dopamine receptor (Homo sapiens, UniProt P35462)
# Chain of D(3) dopamine receptor (P35462 whole entry): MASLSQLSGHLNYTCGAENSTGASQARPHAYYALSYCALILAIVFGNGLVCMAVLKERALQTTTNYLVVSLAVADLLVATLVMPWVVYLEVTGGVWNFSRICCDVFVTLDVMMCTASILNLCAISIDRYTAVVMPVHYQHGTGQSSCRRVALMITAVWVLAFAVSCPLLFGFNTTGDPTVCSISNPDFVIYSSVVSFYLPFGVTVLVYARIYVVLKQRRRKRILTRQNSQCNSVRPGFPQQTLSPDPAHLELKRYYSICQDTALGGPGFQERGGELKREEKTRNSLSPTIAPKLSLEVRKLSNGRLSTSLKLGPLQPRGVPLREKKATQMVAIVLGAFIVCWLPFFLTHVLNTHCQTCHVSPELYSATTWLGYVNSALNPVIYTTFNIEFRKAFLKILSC
# Description: Displacement of [3H]spiperone from human Dopamine receptor D3 expressed in HEK293 cells
# D(2) dopamine receptor = D(2) dopamine receptor (Homo sapiens, UniProt P14416)
# Chain of D(2) dopamine receptor (P14416 whole entry): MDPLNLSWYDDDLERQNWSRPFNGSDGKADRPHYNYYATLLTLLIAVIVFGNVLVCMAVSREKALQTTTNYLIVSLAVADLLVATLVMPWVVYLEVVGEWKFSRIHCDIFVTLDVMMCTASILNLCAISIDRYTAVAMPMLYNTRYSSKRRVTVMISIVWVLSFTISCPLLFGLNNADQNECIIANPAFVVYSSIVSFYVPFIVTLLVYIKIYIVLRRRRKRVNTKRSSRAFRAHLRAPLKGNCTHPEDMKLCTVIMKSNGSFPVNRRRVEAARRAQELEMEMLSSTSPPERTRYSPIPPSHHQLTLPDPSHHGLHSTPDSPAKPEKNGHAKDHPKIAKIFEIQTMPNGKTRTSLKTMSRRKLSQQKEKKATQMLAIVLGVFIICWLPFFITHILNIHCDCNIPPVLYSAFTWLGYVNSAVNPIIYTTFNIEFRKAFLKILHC
# Description: Displacement of [3H]spiperone from human Dopamine receptor D2 expressed in CHO cells
SMILES,Ki (D(4) dopamine receptor),Ki (D(3) dopamine receptor),Ki (D(2) dopamine receptor)
c1ccc(CN2CCC(n3nnc(-c4ccccc4)n3)CC2)cc1,27 nM,1400 nM,1100 nM
Cc1cc(-c2ccccc2)n(C2CCN(Cc3ccccc3)CC2)n1,140 nM,3000 nM,310 nM
Cc1c(-c2ccccc2)n[nH]c1C1CCN(Cc2ccccc2)CC1,4.7 nM,450 nM,90 nM
Cc1c(-c2ccccc2)cnn1C1CCN(Cc2cccc(C#N)c2)CC1,5.2 nM,4400 nM,> 1700 nM
Cc1c(-c2ccccc2)nnn1C1CCN(Cc2ccccc2)CC1,17 nM,2500 nM,1600 nM
c1ccc(CN2CCC(n3nnnc3-c3ccccc3)CC2)cc1,1200 nM,> 4400 nM,> 1800 nM
c1ccc(CN2CCC(n3cnc(-c4ccccc4)c3)CC2)cc1,40 nM,740 nM,450 nM
c1ccc(CN2CCC(n3nccc3-c3ccccc3)CC2)cc1,15 nM,810 nM,510 nM
Cc1c(-c2ccccc2)cnn1C1CCN(Cc2ccccc2)CC1,2.5 nM,450 nM,140 nM
c1ccc(CN2CCC(n3cc(-c4ccccc4)nn3)CC2)cc1,32 nM,1300 nM,460 nM
Cc1nnn(C2CCN(Cc3ccccc3)CC2)c1-c1ccccc1,18 nM,2200 nM,1200 nM
Cc1nn(C2CCN(Cc3ccccc3)CC2)cc1-c1ccccc1,0.39 nM,28 nM,6.1 nM
Cc1nn(C2CCN(Cc3cccc(Cl)c3)CC2)cc1-c1ccccc1,3.1 nM,120 nM,15 nM
Cc1nn(C2CCN(Cc3cccc(C#N)c3)CC2)cc1-c1ccccc1,1.2 nM,260 nM,15 nM
Cc1c(-c2ccccc2)cnn1C1CCN(Cc2cccc(Cl)c2)CC1,3.1 nM,820 nM,370 nM
